Source: patent publication US7138361B2, “Herbicidal heterocycles” (E. I. du Pont de Nemours and Company, priority 2000, dated 2006)

Experiments:
Format in all cases: in vivo
[1] = tested on: morning glory (Ipomoea spp.); experiment: Test A postemergence, sprayed to runoff; design: scale not given here; settings: Morningglory, approx. eleven days
How it was run: (§1)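 Test chemicals in solvent/surfactant mixture applied preemergence as soil drench on sandy loam or postemergence sprayed to runoff at the 1–2-leaf stage. After ~11 days in a greenhouse, injury rated visually versus untreated controls on a 0 (no effect) to 10 (complete control) scale.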

[2] = tested on: velvetleaf (Abutilon theophrasti); experiment: Test A postemergence, sprayed to runoff; design: scale not given here; settings: approx. eleven days
How it was run: as §1

[3] = tested on: barnyardgrass (Echinochloa crus-galli); experiment: Test A postemergence, sprayed to runoff; settings: approx. eleven days
How it was run: as §1

[4] = tested on: crabgrass (Digitaria spp.); experiment: Test A postemergence, sprayed to runoff; settings: approx. eleven days
How it was run: as §1

[5] = tested on: giant foxtail (Setaria viridis); experiment: Test A postemergence, sprayed to runoff; settings: approx. eleven days
How it was run: as §1

[6] = tested on: redroot pigweed (Amaranthus retroflexus); experiment: Test A postemergence, sprayed to runoff; settings: approx. eleven days
How it was run: as §1

[7] = tested on: barnyardgrass (Echinochloa crus-galli); experiment: Test A preemergence, soil drench; settings: approx. eleven days
How it was run: as §1

[8] = tested on: crabgrass (Digitaria spp.); experiment: Test A preemergence, soil drench; settings: approx. eleven days
How it was run: as §1

[9] = tested on: giant foxtail (Setaria viridis); experiment: Test A preemergence, soil drench; settings: approx. eleven days
How it was run: as §1

[10] = tested on: morning glory (Ipomoea spp.); experiment: Test A preemergence, soil drench; settings: Morningglory, approx. eleven days
How it was run: as §1

[11] = tested on: redroot pigweed (Amaranthus retroflexus); experiment: Test A preemergence, soil drench; settings: approx. eleven days
How it was run: as §1

[12] = tested on: velvetleaf (Abutilon theophrasti); experiment: Test A preemergence, soil drench; settings: approx. eleven days
How it was run: as §1

[13] = tested on: barnyardgrass (Echinochloa crus-galli); experiment: Test B flooded paddy test; settings: Rate 1000 g/ha, scale of 0 to 100 where 0 is no effect and 100 is complete control, visually evaluated after 13 to 15 days
How it was run: (§2)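 2-leaf plants, flooded paddy; greenhouse 13–15 d post-treatment; visual rating vs controls, 0–100 scale (0 = no effect, 100 = complete control); dash = no result.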

[14] = tested on: duck salad (Heteranthera limosa); experiment: Test B flooded paddy test; settings: Rate 1000 g/ha, scale of 0 to 100 where 0 is no effect and 100 is complete control, visually evaluated after 13 to 15 days
How it was run: as §2

rice (Oryza saliva) = experiment: Test B flooded paddy test; settings: Rate 1000 g/ha, scale of 0 to 100 where 0 is no effect and 100 is complete control, visually evaluated after 13 to 15 days
How it was run: as §2

[15] = tested on: smallflower flatsedge (Cyperus difformis); experiment: Test B flooded paddy test; settings: Rate 1000 g/ha, scale of 0 to 100 where 0 is no effect and 100 is complete control, visually evaluated after 13 to 15 days
How it was run: as §2

[16] = tested on: duck salad (Heteranthera limosa); experiment: Test C flooded paddy test; settings: for Ducksalad plant response rating: Flooded Paddy, scale 0 to 100, 0 no effect, 100 complete control; for Plant response rating, Ducksalad: flooded paddy test, scale 0 to 100 (0 no effect, 100 complete control)
How it was run: (§3)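 Plants were grown to the 2-leaf stage under flooded paddy conditions and treated. They were then kept in a greenhouse for 12 to 14 days and visually rated against untreated controls on a 0–100 scale, where 0 is no effect and 100 is complete control.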

[17] = tested on: smallflower flatsedge (Cyperus difformis); experiment: Test C flooded paddy test; settings: for Flatsedge plant response rating: Flooded Paddy, scale 0 to 100, 0 no effect, 100 complete control; for Plant response rating, Flatsedge: flooded paddy test, scale 0 to 100 (0 no effect, 100 complete control)
How it was run: as §3

Sunflower = experiment: Test C preemergence; settings: Rate 31 g/ha, scale 0 to 100

Compound: O=C1C(n2ccc(C3CC3)n2)OCN1c1cccc(C(F)(F)F)c1 (stereo not shown) [Compound 28]
- Plant response rating (visual injury vs untreated controls) ([1]; Rate 500 g/ha): 10
- Plant response rating (visual injury vs untreated controls) ([1]; Rate 2000 g/ha): 20
- Plant response rating (visual injury vs untreated controls) ([2]; Rate 500 g/ha): 0
- Plant response rating (visual injury vs untreated controls) ([2]; Rate 2000 g/ha): 50
- Plant response rating (visual injury vs untreated controls) ([3]; Rate 500 g/ha): 60
- Plant response rating (visual injury vs untreated controls) ([3]; Rate 2000 g/ha): 60
- Plant response rating (visual injury vs untreated controls) ([4]; Rate 500 g/ha): 20
- Plant response rating (visual injury vs untreated controls) ([4]; Rate 2000 g/ha): 40
- Plant response rating (visual injury vs untreated controls) ([5]; Rate 500 g/ha): 80
- Plant response rating (visual injury vs untreated controls) ([5]; Rate 2000 g/ha): 90
- Plant response rating (visual injury vs untreated controls) ([6]; Rate 500 g/ha): 20
- Plant response rating (visual injury vs untreated controls) ([6]; Rate 2000 g/ha): 80
- Plant response rating (visual injury vs untreated controls) ([7]; Rate 500 g/ha): 100
- Plant response rating (visual injury vs untreated controls) ([7]; Rate 2000 g/ha): 100
- Plant response rating (visual injury vs untreated controls) ([8]; Rate 500 g/ha): 90
- Plant response rating (visual injury vs untreated controls) ([8]; Rate 2000 g/ha): 100
- Plant response rating (visual injury vs untreated controls) ([9]; Rate 500 g/ha): 100
- Plant response rating (visual injury vs untreated controls) ([9]; Rate 2000 g/ha): 100
- Plant response rating (visual injury vs untreated controls) ([10]; Rate 500 g/ha): 0
- Plant response rating (visual injury vs untreated controls) ([10]; Rate 2000 g/ha): 0
- Plant response rating (visual injury vs untreated controls) ([11]; Rate 500 g/ha): 100
- Plant response rating (visual injury vs untreated controls) ([11]; Rate 2000 g/ha): 100
- Plant response rating (visual injury vs untreated controls) ([12]; Rate 500 g/ha): 10
- Plant response rating (visual injury vs untreated controls) ([12]; Rate 2000 g/ha): 10
- Plant response rating, Barnyardgrass [13]: 100
- Plant response rating, Ducksalad [14]: 100
- Plant response rating, Rice (rice (Oryza saliva)): 50
- Plant response rating, Flatsedge [15]: 100
- Ducksalad plant response rating ([16]; Rate 250 g/ha): 70
- Ducksalad plant response rating ([16]; Rate 500 g/ha): 100
- Plant response rating, Ducksalad ([16]; Rate 62 g/ha): 0
- Plant response rating, Ducksalad ([16]; Rate 125 g/ha): 0
- Flatsedge plant response rating ([17]; Rate 250 g/ha): 100
- Flatsedge plant response rating ([17]; Rate 500 g/ha): 100
- Plant response rating, Flatsedge ([17]; Rate 62 g/ha): 80
- Plant response rating, Flatsedge ([17]; Rate 125 g/ha): 80
- Plant response rating, Sunflower (Sunflower): 0
